As usually defined, the Papp B→A is how fast a substance crosses the layer from the basolateral side.

For 1 molecule, Clhep, inhibition and Papp B→A results are on record in US11643421B2, “Process for the preparation of tricyclic PI3K inhibitor compounds and methods for using the same for the treatment of cancer” (priority 2015, dated 2023).

Series [1] is described as follows: Hepatocyte stability, predicted hepatic clearance. The following applies: in vitro t1/2 method. It is filed as in vitro ADME. On the procedure: The hepatocyte stability of compound IIIat was evaluated across preclinical species. Certain in vivo pharmacokinetic parameters were also evaluated. […] Male Sprague-Dawley rats, female CD-1 mice, male cynomolgus monkeys and beagle dogs were dosed intravenously with 1 mg/kg of compound IIIat prepared in 60% PEG400/10% Ethanol. Compound IIIat was administered orally (PO) at the indicated dose in 0.5% methylcellulose with 0.2% Tween 80 (MCT).

In a further series the target is Ron (Homo sapiens, UniProt Q04912). Description: biochemical. The following applies: read-out: % inhib.
Ron, sequence (Q04912 25-1400, species assumed): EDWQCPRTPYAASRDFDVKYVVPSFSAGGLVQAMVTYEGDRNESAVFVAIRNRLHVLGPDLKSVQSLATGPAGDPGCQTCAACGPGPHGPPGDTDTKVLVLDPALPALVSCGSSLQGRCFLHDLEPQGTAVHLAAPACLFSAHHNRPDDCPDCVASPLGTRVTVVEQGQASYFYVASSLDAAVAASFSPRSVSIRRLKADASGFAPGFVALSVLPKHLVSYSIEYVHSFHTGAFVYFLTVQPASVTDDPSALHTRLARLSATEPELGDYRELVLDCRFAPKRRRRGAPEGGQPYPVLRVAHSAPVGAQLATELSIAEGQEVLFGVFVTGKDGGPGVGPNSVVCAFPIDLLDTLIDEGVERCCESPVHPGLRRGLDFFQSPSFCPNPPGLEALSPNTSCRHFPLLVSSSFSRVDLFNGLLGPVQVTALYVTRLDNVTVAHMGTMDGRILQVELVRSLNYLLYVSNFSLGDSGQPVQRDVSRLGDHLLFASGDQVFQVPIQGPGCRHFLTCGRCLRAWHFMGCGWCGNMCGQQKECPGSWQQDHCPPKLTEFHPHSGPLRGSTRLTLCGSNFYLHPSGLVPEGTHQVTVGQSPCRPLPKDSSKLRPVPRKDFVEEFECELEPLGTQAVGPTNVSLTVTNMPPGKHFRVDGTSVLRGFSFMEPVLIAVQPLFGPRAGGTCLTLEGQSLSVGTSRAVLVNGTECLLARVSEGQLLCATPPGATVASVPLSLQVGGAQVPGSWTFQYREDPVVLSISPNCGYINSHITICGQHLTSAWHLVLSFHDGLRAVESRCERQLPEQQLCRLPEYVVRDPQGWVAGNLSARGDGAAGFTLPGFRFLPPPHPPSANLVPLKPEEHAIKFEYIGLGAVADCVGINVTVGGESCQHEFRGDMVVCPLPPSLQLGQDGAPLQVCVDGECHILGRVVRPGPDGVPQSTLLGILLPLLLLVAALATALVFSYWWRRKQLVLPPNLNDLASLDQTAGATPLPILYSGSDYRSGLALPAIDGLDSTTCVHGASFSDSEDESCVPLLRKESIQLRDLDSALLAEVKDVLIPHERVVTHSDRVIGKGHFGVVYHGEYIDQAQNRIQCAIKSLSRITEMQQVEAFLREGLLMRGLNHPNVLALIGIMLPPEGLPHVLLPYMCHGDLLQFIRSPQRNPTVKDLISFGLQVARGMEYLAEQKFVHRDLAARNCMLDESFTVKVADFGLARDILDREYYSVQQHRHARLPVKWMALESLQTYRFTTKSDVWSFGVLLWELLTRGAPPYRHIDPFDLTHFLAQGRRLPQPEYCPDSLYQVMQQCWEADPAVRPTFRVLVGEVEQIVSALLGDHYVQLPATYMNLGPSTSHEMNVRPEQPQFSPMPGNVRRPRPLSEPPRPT
For the next series, the target named is mouse P-gp (mdr1a) (Mus musculus, UniProt P21447). Description: Transport assay in Mdr1a-LLC-PK1 cell monolayers. The following applies: Mdr1a-LLC-PK, 2-hour incubation. It is filed as in vitro ADME. On the procedure: MDR1-MDCKI cells were licensed from the NCI (National Cancer Institute, Bethesda, Md.) and Bcrp1-MDCKII, BCRP-MDCKII and Mdr1a-LLC-PK1 cells were obtained from the Netherlands Cancer Institute (Amsterdam. The Netherlands). […] The compound was dissolved in transport buffer consisting of Hank's balanced salt solution (HBSS) with 10 mM HEPES (Invitrogen Corporation, Grand Island, N.Y.). Lucifer Yellow (Sigma-Aldrich, St. Louis, Mo.) was used as the paracellular and monolayer integrity marker. […] The efflux ratio (ER) was calculated (Papp, B-A/Papp, A-B).
mouse P-gp (mdr1a), sequence (P21447 whole entry): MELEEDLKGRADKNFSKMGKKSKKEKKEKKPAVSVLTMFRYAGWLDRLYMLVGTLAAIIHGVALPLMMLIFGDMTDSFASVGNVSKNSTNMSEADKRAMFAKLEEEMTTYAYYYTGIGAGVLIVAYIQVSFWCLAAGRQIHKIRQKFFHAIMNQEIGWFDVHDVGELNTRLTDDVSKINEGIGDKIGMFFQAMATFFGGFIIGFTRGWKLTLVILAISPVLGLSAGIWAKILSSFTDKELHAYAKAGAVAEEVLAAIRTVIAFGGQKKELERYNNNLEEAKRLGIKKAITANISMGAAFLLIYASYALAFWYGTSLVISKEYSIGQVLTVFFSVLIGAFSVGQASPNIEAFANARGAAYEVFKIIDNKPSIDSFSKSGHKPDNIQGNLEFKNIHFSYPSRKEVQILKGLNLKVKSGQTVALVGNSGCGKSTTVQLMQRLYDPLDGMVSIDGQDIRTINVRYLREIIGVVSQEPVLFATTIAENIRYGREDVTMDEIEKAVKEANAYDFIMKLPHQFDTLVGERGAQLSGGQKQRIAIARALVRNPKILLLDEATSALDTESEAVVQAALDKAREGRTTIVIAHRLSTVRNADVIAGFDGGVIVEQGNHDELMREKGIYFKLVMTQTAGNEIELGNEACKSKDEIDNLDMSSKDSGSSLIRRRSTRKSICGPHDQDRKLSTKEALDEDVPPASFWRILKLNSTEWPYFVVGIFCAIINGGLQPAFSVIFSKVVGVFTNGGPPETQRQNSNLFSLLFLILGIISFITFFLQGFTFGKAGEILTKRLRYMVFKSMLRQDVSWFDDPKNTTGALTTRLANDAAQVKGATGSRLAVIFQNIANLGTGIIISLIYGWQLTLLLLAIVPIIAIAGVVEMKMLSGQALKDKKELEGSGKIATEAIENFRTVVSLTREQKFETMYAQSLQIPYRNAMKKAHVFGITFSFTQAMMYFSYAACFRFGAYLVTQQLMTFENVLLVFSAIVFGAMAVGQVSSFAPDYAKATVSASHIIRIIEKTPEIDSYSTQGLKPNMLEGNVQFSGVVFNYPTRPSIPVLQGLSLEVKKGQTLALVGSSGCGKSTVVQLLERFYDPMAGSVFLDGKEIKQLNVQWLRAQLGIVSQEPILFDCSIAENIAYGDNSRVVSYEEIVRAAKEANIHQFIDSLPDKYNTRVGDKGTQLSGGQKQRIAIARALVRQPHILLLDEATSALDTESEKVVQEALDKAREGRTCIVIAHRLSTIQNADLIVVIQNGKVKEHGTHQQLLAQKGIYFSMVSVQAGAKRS

Regarding `CC1(C)OCCn2c1nc1c(N3CCOCC3)nc(-c3cnc(N)nc3)nc12` [GDC-0084, 5-(6,6-dimethyl-4-morpholino-8,9-dihydro-6H-[1,4]oxazino[3,4-e]purin-2-yl)pyrimidin-2-amine], the Clhep in series [1] (Dog hepatocytes) is given as 13 mL/min/kg; in series [1] (Mouse hepatocytes), 30 mL/min/kg; in series [1] (Rat hepatocytes), 3 mL/min/kg. In addition, the inhibition at 1 µM on Ron is 8%. The Papp B→A at 2 h, 5 μM on mouse P-gp (mdr1a) came out at 19.4 ± 1.3 ×10⁻⁶ cm/s.
